The results in this text go back to paper PMC9393390 (Frontiers in Pharmacology, 2022).

Where two headings read alike, the source gives them in different places.

One test deals with T1, SARS-CoV-2-RBD (S-RBD) (Severe acute respiratory syndrome coronavirus 2, UniProt P0DTC2).
T1 construct: purchased Sino Biological
As to the kind of experiment: Surface plasmon resonance (SPR) binding to immobilized S-RBD. On the technique in general: SPR reads the build-up and loss of mass on a sensor chip optically.

The target in the next test is T2, hACE2 (Homo sapiens, UniProt Q9BYF1).
T2 construct: purchased Sino Biological
As to the kind of experiment: Surface plasmon resonance (SPR) binding to immobilized hACE2. As for the experimental part: The recombinant S-RBD (Sino Biological, Beijing, China) and hACE2 protein (Sino Biological, Beijing, China) were used for surface plasmon resonance (SPR) analysis using a Biacore 8K instrument (Biacore, Uppsala, Sweden) as previously described ([Chu et al., 2018a]; [Chu et al., 2018b]). Each target was immobilized onto flow cells in a CM5 sensor chip (GE Healthcare) via the amine-coupling method. Briefly, S-RBD was diluted in 10 mM pH 5.5 acetate to 20 µg/ml, while hACE2 was diluted in 10 mM pH 4.5 acetate to 20 µg/ml. Then the protein solutions were injected individually on the carboxyl modified sensor surface to form amine bonds. Both S-RBD and hACE2 immobilized levels were about 10,000 RU. Binding analyses were carried out at 25 °C and a flow rate of 30 μl min^−1. The retrieved drugs in a running buffer (1×PBS, 0.05% Tween 20 and 5% dimethyl sulfoxide, pH 7.4) were run over each target at gradient concentrations as indicated. An empty flow cell, without any immobilized protein, was used as a deducted reference. The binding curves were analyzed using a kinetic binding model supplied with Biacore Evaluation Software (GE Healthcare).
To evaluate the retrieved inhibitors against the S-RBD-hACE2, surface plasmon resonance (SPR) was used to determine the binding affinities of the 20 retrieved drugs to S-RBD and hACE2.
SPR analysis was performed to assess the retrieved drugs binding to hACE2 at gradient concentrations. The binding curves were analyzed using a kinetic analysis supplied with Biacore Evaluation Software. Data are presented as RU over time (s). The K D were calculated using a 1:1 binding model.

In test [1] the target is T3, S-RBD binding to hACE2 (Homo sapiens, UniProt Q9BYF1).
T3 construct: purchased Sino Biological
As to the kind of experiment: SPR competition binding experiment (S-RBD on immobilized hACE2). The settings on record: competitive SPR, 40 nM S-RBD, 25 μM to 0.012 μM.

The target of test [2] is S-RBD binding to hACE2 (Severe acute respiratory syndrome coronavirus 2, UniProt P0DTC2). As to the kind of experiment: Competitive inhibition ELISA (SARS-CoV-2 inhibitor screening kit). Format: biochemical. The following applies: 1 μM.
[3] abbreviates: SPR, 25 °C, 1:1 binding model, read-out: S-RBD K D.
Setting [4] is: SPR, 25 °C, 1:1 binding model, read-out: ACE2 K D.

T2 sequence (Q9BYF1 18-805): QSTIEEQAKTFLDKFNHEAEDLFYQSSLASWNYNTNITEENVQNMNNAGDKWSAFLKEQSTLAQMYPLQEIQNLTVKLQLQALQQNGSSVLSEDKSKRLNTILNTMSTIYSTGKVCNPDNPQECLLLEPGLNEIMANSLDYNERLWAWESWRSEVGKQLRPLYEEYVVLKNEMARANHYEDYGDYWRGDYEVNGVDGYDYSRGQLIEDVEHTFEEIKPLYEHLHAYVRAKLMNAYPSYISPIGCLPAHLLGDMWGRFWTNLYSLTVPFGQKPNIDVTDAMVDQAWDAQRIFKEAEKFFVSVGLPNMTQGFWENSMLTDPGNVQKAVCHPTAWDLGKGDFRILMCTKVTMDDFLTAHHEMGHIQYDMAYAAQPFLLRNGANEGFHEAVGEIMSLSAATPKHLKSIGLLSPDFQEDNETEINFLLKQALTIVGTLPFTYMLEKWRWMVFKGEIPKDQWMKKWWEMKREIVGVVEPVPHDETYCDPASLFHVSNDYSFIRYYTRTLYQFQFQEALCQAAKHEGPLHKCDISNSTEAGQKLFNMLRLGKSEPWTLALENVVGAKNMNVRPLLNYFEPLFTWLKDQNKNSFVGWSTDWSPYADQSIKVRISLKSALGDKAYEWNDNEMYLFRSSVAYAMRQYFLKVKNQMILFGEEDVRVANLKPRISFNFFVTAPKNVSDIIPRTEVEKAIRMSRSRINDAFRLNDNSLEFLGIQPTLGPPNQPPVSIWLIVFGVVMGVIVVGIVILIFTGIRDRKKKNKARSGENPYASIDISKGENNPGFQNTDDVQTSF
T3 sequence (Q9BYF1 18-740): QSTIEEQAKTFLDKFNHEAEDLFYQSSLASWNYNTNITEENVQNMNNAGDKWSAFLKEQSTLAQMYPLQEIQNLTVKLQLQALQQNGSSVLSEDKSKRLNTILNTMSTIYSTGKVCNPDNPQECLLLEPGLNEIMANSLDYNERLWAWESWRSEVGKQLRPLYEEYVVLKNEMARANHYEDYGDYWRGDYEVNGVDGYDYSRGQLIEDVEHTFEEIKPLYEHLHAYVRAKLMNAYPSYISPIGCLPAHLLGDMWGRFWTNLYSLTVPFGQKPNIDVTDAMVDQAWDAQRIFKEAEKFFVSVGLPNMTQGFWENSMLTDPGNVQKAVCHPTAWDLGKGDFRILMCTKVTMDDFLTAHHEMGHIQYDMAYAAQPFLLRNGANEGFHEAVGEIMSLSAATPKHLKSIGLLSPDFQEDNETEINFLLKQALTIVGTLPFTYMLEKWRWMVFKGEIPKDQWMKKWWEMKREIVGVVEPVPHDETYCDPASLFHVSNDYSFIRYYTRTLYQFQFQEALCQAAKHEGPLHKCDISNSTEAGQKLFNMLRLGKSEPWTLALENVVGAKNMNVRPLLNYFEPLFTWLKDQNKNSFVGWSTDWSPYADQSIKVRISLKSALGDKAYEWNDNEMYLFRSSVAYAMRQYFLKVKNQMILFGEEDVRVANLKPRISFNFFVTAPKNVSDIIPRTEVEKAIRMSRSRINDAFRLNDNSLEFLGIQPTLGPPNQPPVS

For Sodium aescinate, the Kd at SARS-CoV-2-RBD (S-RBD) (setting [3]) was 16.8 µM.
Turning to `CC(C)=CCC[C@](C)(O[C@@H]1O[C@H](CO[C@@H]2O[C@@H](CO)[C@H](O)[C@H]2O)[C@@H](O)[C@H](O)[C@H]1O)[C@H]1CC[C@]2(C)[C@@H]1[C@H](O)C[C@@H]1[C@@]3(C)CC[C@H](O[C@@H]4O[C@H](CO)[C@@H](O)[C@H](O)[C@H]4O[C@@H]4O[C@H](CO)[C@@H](O)[C@H](O)[C@H]4O)C(C)(C)[C@@H]3CC[C@]12C` [Ginsenoside Rc], the Kd on SARS-CoV-2-RBD (S-RBD) turned out to be 79.8 µM.
For `CCC(C)(C)C(=O)O[C@H]1C[C@@H](C)C=C2C=C[C@H](C)[C@H](CC[C@@H]3C[C@@H](O)CC(=O)O3)[C@H]21` [Simvastatin], at hACE2, the Kd was found to be 35.8 µM.
On to Teichomycin, for which the Kd at hACE2 (setting [4]) was 250 µM.
Regarding `C[C@@H]1[C@H](O)[C@@H](C)/C=C/C=C/C=C/C=C/C=C/C=C/C=C/[C@H](O[C@@H]2O[C@H](C)[C@@H](O)[C@H](N)[C@@H]2O)C[C@@H]2O[C@](O)(C[C@@H](O)C[C@@H](O)[C@H](O)CC[C@@H](O)C[C@@H](O)CC(=O)O[C@H]1C)C[C@H](O)[C@H]2C(=O)O` [Amphotericin B], the Kd on hACE2 worked out at 9.49 µM; on SARS-CoV-2-RBD (S-RBD), 1.01 µM.
As for `C[C@@H]1[C@H](O)[C@@H](C)/C=C/C=C/CC/C=C/C=C/C=C/C=C/C(O[C@H]2O[C@H](C)[C@@H](O)[C@H](N)[C@@H]2O)CC2O[C@](O)(CC(O)C(O)CCC(O)CC(O)CC(O)CC(=O)O[C@H]1C)CC(O)C2C(=O)O` (some centres unmarked) [Nystatin], at SARS-CoV-2-RBD (S-RBD) (setting [3]), the Kd was 215 µM.
On to `COC(=O)C1=CO[C@@H](O[C@@H]2O[C@H](CO)[C@@H](O)[C@H](O)[C@H]2O)[C@@H]2C(CO)=CC[C@H]12` [Geniposide], for which, on SARS-CoV-2-RBD (S-RBD), the Kd amounted to 54.9 µM.
Still for that read-out and setting: next, `Nc1c(Br)cc(Br)cc1CN[C@H]1CC[C@H](O)CC1` [Ambroxol]: 21.2 µM.
Turning to `O=C(OCC1OC(OC(=O)c2cc(O)c(O)c(OC(=O)c3cc(O)c(O)c(O)c3)c2)C(OC(=O)c2cc(O)c(O)c(OC(=O)c3cc(O)c(O)c(O)c3)c2)C(OC(=O)c2cc(O)c(O)c(OC(=O)c3cc(O)c(O)c(O)c3)c2)C1OC(=O)c1cc(O)c(O)c(OC(=O)c2cc(O)c(O)c(O)c2)c1)c1cc(O)c(O)c(OC(=O)c2cc(O)c(O)c(O)c2)c1` (centres unmarked) [Tannic acid], the Kd on hACE2 (read-out: ACE2 K D, SPR, 25 °C, 1:1 binding model) was found to be 8.55 µM. At S-RBD binding to hACE2 [1], the “interference with binding of S-RBD to hACE2” value is “interfered with the binding of the S-RBD to hACE2 in a dose-dependent manner”. The “prevention of S-RBD binding to hACE2” value on S-RBD binding to hACE2 [2] is “prevented S-RBD from binding to hACE2”.
`Cc1ccc([C@@H]2O[C@H](CO)[C@@H](O)[C@H](O)[C@H]2O)cc1Cc1ccc(-c2ccc(F)cc2)s1` [Canagliflozin]: the Kd on SARS-CoV-2-RBD (S-RBD) (setting [3]) stood at 23.1 µM.
With Aescin, the Kd at hACE2 (setting [4]) amounted to 105 µM.
`COC(=O)C1=CC[C@@]23CC[C@@H]([C@@](C)(/C=C/C=C(\C)C(=O)O)OC2=O)[C@@]3(OC(C)=O)CC1` [Pseudolaric acid B]: the Kd at hACE2 stood at 53.8 µM.
As for `CC[C@H](C)C(=O)O[C@H]1CCC=C2C=C[C@H](C)[C@H](CC[C@@H]3C[C@@H](O)CC(=O)O3)[C@H]21` [Mevastatin], the Kd on SARS-CoV-2-RBD (S-RBD) was 273 µM.
In the case of `O=S(=O)(O)Oc1ccc(C(c2ccc(OS(=O)(=O)O)cc2)c2ccccn2)cc1` [Sodium Picosulfate], the Kd amounted to 45.4 µM on hACE2 and 16 µM at SARS-CoV-2-RBD (S-RBD).
Regarding `Cc1cc(OCCCS(C)(=O)=O)cc(C)c1-c1cccc(COc2ccc3c(c2)OC[C@H]3CC(=O)O)c1` [Fasiglifam], the figures for the Kd on hACE2 and at SARS-CoV-2-RBD (S-RBD) were 10.5 µM and 42.2 µM, respectively.
